The values that follow are results of earlier work, collected in paper PMC6005628, “Molecular genetic characteristics of influenza A virus clinically isolated during 2011‐2016 influenza seasons in Korea” (Influenza and Other Respiratory Viruses, 2018).

The data set concerns NA protein with single I222V/M substitution.

Turning to `CCOC(=O)C1=C[C@@H](OC(CC)CC)[C@H](NC(C)=O)[C@@H](N)C1` [oseltamivir], the “resistance associated with NA substitution” value is listed as “marginal levels of resistance”.
